“Also recorded” adds a separate entry of the source.
Tests used:
[1] = test system: TNF-α induced H2O2 formation; assay: inflammatory resistance assay: ex vivo TNF-α induced extracellular H2O2 generation by blood cells; type: in vivo, human; details: single oral dose 50 mg blend or 1,000 mg vitamin C
iNOS = iNOS (Homo sapiens, UniProt P35228); assay: eCMA-iNOS: iNOS-dependent ROS generation in capillary blood (ESR) after single oral dose; type: in vivo; details: over three hours after single oral dose (50 mg blend or 1,000 mg vitamin C); FIG. 2
NOX2 = molecular target: T1, NOX2 (Homo sapiens, UniProt P04839); assay: eCMA-PHAGO-NOX2: NOX2-dependent ROS generation in capillary blood (ESR) after single oral dose; type: in vivo; details: single oral dose (50 mg blend or 1,000 mg vitamin C); subjects 18-24 days after moderate COVID-19; 30-180 min after administration
T1 sequence (P04839 2-570 limits assumed): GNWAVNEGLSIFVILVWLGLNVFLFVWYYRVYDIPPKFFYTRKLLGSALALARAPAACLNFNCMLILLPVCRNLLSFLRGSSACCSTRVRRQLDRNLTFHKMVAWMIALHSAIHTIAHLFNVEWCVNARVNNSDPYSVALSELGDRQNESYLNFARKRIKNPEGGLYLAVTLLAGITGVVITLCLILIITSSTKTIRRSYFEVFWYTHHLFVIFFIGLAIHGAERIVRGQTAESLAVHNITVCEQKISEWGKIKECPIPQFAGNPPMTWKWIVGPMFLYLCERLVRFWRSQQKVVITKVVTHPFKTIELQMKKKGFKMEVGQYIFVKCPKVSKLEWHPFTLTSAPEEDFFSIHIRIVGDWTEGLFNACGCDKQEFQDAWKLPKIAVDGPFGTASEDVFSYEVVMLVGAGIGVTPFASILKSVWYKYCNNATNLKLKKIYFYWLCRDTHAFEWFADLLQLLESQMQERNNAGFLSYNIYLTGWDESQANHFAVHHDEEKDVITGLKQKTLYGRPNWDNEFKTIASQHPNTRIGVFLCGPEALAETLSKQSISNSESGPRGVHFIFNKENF
T1 sequence (P13498 2-195 partner limits assumed): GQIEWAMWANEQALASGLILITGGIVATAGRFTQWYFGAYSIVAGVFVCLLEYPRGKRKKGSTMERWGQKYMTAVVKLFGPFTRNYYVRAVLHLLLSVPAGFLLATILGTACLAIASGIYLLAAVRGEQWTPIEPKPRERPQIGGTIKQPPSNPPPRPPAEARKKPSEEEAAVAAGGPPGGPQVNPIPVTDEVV

SMILES: O=C1O[C@H]([C@@H](O)CO)C(O)=C1O [vitamin C]
- suppression of extracellular H2O2 induced by TNF-α, in words ([1]; TNF-α 40 ng/ml (comparable to acute viral infection), FIG. 5A): similarly suppress
- reduction of high dose TNFα-induced H2O2 formation, in words ([1]; TNFα 200 ng/ml ("Cytokine Storm"), FIG. 5B): equal potential to reduce; also recorded: similar
- change in iNOS dependent cellular metabolic activity, in words (iNOS): no notable effect
- inhibition of NOX2-dependent ROS generation (NOX2): 45%

From patent US20260232749A1, “Plant-Based Compositions And Methods For Modulation of Inflammatory Response Post Viral Infection” (VDF Futureceuticals, Inc., priority 2023, published 2026)
